Measurements published in patent publication US20090053154A1, “MIXTURES OF ETHYLHEXYL P-METHOXYCINNAMATE AND ETHYLHEXYL SALICYLATE” (SYMRISE GmbH & Co. KG, priority 2005, published 2009).
Where two headings read alike, the source gives them in different places.

What was measured:
[1] = emulsion containing 5 wt. % of EHMC; cited from earlier work
[2] = cited from earlier work
[3] = Specific extinction E 1%/1 cm of the UV filter; type: physicochemical; conditions: EHS versus EHMC
Description: 2-Ethylhexyl p-methoxycinnamate (ethylhexyl p-methoxycinnamate, CAS no.: 5466-77-3; USAN: Octinoxate, Neo Heliopan® AV (Symrise trade mark); hereafter abbreviated to EHMC) is a liquid, oil-soluble UV-B filter with a specific extinction E 1%/1 cm at 308 nm of approx. 850 (cf. H&R Contact no. 51, January 1991, pages 3-8). 2-Ethylhexyl p-methoxycinnamate is also frequently abbreviated to octyl methoxycinnamate (OMC) in the literature.
2-Ethylhexyl salicylate (CAS no.: 118-60-5; USAN: Octisalate, Neo Heliopan® OS (Symrise trade mark); hereafter abbreviated to EHS) is likewise a liquid, oil-soluble UV-B filter with a specific extinction E 1%/1 cm at 305 nm of approx. 180 (cf. H&R Contact no. 51, January 1991, pages 3-8). The specific extinction of EHS is lower than that of EHMC by a factor of about 5.
The specific extinction of UV filters is of primary importance as an index for assessing the efficacy in respect of the achievable light protection factor (LPF, hereafter also SPF (sun protection factor)). […] The light protection factor of a (light protection) formulation is a measure of the UV-B protection it can achieve. The absolute SPF values also depend within certain limits on the cosmetic base formulation used.

Row | Compound | SPF (in vitro measurement) [1] | specific extinction E 1%/1 cm ([2]; at 308 nm) | specific extinction E 1%/1 cm ([2]; at 305 nm) | specific extinction lower than that of EHMC by a factor [3]
1 | CCCCC(CC)COC(=O)C=Cc1ccc(OC)cc1 (stereo not shown) [EHMC, 2-Ethylhexyl p-methoxycinnamate] | 10.1 | approx. 850 |  | 
2 | CCCCC(CC)COC(=O)c1ccccc1O (stereo not shown) [EHS, 2-Ethylhexyl salicylate] |  |  | approx. 180 | about 5
